Measurements as given in ChEMBL document CHEMBL1909570, “Synthesis and antibacterial activity of N4-mono alkyl derivatives of novel glycopeptide LYV07ww01” (2011).
Values after ≈ are worked out from the molar mass of the structure shown.

Legend:
Format in all cases: functional
Staphylococcus aureus = assay: Antibacterial activity against Staphylococcus aureus 26003 by CLSI agar microdilution method
Streptococcus pneumoniae = assay: Antibacterial activity against Streptococcus pneumoniae 31002 by CLSI agar microdilution method
Staphylococcus = assay: Antibacterial activity against Staphylococcus albus 26101 by CLSI agar microdilution method
Enterococcus faecium = assay: Antibacterial activity against Enterococcus faecium 32220 by CLSI agar microdilution method
Streptococcus = assay: Antibacterial activity against Streptococcus gamma 32206 by CLSI agar microdilution method
[1] = test system: Staphylococcus epidermidis; assay: Antibacterial activity against Staphylococcus epidermidis 26069 by CLSI agar microdilution method

Compound | MIC (Staphylococcus aureus) [µg/mL] | MIC (Streptococcus pneumoniae) [µg/mL] | MIC (Staphylococcus) [µg/mL] | MIC (Enterococcus faecium) [µg/mL] | MIC (Streptococcus) [µg/mL] | MIC [1] [µg/mL]
CCCCCCCCCCN[C@@]1(C)C[C@H](O[C@H]2[C@H](Oc3c4cc5cc3Oc3ccc(cc3Cl)[C@@H](O[C@H]3C[C@](C)(N)[C@H](O)[C@H](C)O3)[C@@H]3NC(=O)[C@H](NC(=O)[C@@H]5NC(=O)[C@H](CC(N)=O)NC(=O)[C@H](NC(=O)[C@@H](CC(C)C)NC)[C@H](O)c5ccc(c(Cl)c5)O4)c4ccc(O)c(c4)-c4c(O)cc(O)cc4[C@H](C(=O)O)NC3=O)O[C@H](CO)[C@@H](O)[C@@H]2O)O[C@@H](C)[C@H]1O | 6.25 (≈ 3.61 µM) | 6.25 (≈ 3.61 µM) | 6.25 (≈ 3.61 µM) | > 25 | 6.25 (≈ 3.61 µM) | > 25
CCCCCCOc1ccc(CN[C@@]2(C)C[C@H](O[C@H]3[C@H](Oc4c5cc6cc4Oc4ccc(cc4Cl)[C@@H](O[C@H]4C[C@](C)(N)[C@H](O)[C@H](C)O4)[C@@H]4NC(=O)[C@H](NC(=O)[C@@H]6NC(=O)[C@H](CC(N)=O)NC(=O)[C@H](NC(=O)[C@@H](CC(C)C)NC)[C@H](O)c6ccc(c(Cl)c6)O5)c5ccc(O)c(c5)-c5c(O)cc(O)cc5[C@H](C(=O)O)NC4=O)O[C@H](CO)[C@@H](O)[C@@H]3O)O[C@@H](C)[C@H]2O)cc1 | 6.25 (≈ 3.51 µM) | 3.13 (≈ 1.76 µM) | 6.25 (≈ 3.51 µM) | 6.25 (≈ 3.51 µM) | 3.13 (≈ 1.76 µM) | > 25
CCCCCCCCCOc1ccc(CN[C@@]2(C)C[C@H](O[C@H]3[C@H](Oc4c5cc6cc4Oc4ccc(cc4Cl)[C@@H](O[C@H]4C[C@](C)(N)[C@H](O)[C@H](C)O4)[C@@H]4NC(=O)[C@H](NC(=O)[C@@H]6NC(=O)[C@H](CC(N)=O)NC(=O)[C@H](NC(=O)[C@@H](CC(C)C)NC)[C@H](O)c6ccc(c(Cl)c6)O5)c5ccc(O)c(c5)-c5c(O)cc(O)cc5[C@H](C(=O)O)NC4=O)O[C@H](CO)[C@@H](O)[C@@H]3O)O[C@@H](C)[C@H]2O)cc1 | 12.5 (≈ 6.85 µM) | 12.5 (≈ 6.85 µM) | 25 (≈ 13.7 µM) | 12.5 (≈ 6.85 µM) | 12.5 (≈ 6.85 µM) | > 25
CCCCCCCCCCNCCN[C@@]1(C)C[C@H](O[C@H]2[C@H](Oc3c4cc5cc3Oc3ccc(cc3Cl)[C@@H](O[C@H]3C[C@](C)(N)[C@H](O)[C@H](C)O3)[C@@H]3NC(=O)[C@H](NC(=O)[C@@H]5NC(=O)[C@H](CC(N)=O)NC(=O)[C@H](NC(=O)[C@@H](CC(C)C)NC)[C@H](O)c5ccc(c(Cl)c5)O4)c4ccc(O)c(c4)-c4c(O)cc(O)cc4[C@H](C(=O)O)NC3=O)O[C@H](CO)[C@@H](O)[C@@H]2O)O[C@@H](C)[C@H]1O | 6.25 (≈ 3.52 µM) | 3.13 (≈ 1.76 µM) | 6.25 (≈ 3.52 µM) | 12.5 (≈ 7.04 µM) | 3.13 (≈ 1.76 µM) | > 25

These reach a lower MIC (Staphylococcus aureus). Values come first.

MIC (Staphylococcus aureus) [µg/mL] | MIC (Streptococcus pneumoniae) [µg/mL] | MIC (Staphylococcus) [µg/mL] | MIC (Enterococcus faecium) [µg/mL] | MIC (Streptococcus) [µg/mL] | MIC [1] [µg/mL] | Compound
1.56 (≈ 0.9 µM) | 1.56 (≈ 0.9 µM) | 3.13 (≈ 1.81 µM) | 3.13 (≈ 1.81 µM) | 0.78 (≈ 0.45 µM) | > 25 | CN[C@H](CC(C)C)C(=O)N[C@H]1C(=O)N[C@@H](CC(N)=O)C(=O)N[C@H]2C(=O)N[C@H]3C(=O)N[C@H](C(=O)N[C@@H](C(=O)O)c4cc(O)cc(O)c4-c4cc3ccc4O)[C@H](O[C@H]3C[C@](C)(N)[C@H](O)[C@H](C)O3)c3ccc(c(Cl)c3)Oc3cc2cc(c3O[C@@H]2O[C@H](CO)[C@@H](O)[C@H](O)[C@H]2O[C@H]2C[C@](C)(NCc3ccc4ccccc4c3)[C@H](O)[C@H](C)O2)Oc2ccc(cc2Cl)[C@H]1O
1.56 (≈ 0.909 µM) | 0.78 (≈ 0.454 µM) | 1.56 (≈ 0.909 µM) | 1.56 (≈ 0.909 µM) | 0.78 (≈ 0.454 µM) | > 25 | CN[C@H](CC(C)C)C(=O)N[C@H]1C(=O)N[C@@H](CC(N)=O)C(=O)N[C@H]2C(=O)N[C@H]3C(=O)N[C@H](C(=O)N[C@@H](C(=O)O)c4cc(O)cc(O)c4-c4cc3ccc4O)[C@H](O[C@H]3C[C@](C)(N)[C@H](O)[C@H](C)O3)c3ccc(c(Cl)c3)Oc3cc2cc(c3O[C@@H]2O[C@H](CO)[C@@H](O)[C@H](O)[C@H]2O[C@H]2C[C@](C)(NCc3cccc(Cl)c3)[C@H](O)[C@H](C)O2)Oc2ccc(cc2Cl)[C@H]1O
1.56 (≈ 0.864 µM) | 1.56 (≈ 0.864 µM) | 3.13 (≈ 1.73 µM) | 1.56 (≈ 0.864 µM) | 1.56 (≈ 0.864 µM) | > 25 | CN[C@H](CC(C)C)C(=O)N[C@H]1C(=O)N[C@@H](CC(N)=O)C(=O)N[C@H]2C(=O)N[C@H]3C(=O)N[C@H](C(=O)N[C@@H](C(=O)O)c4cc(O)cc(O)c4-c4cc3ccc4O)[C@H](O[C@H]3C[C@](C)(N)[C@H](O)[C@H](C)O3)c3ccc(c(Cl)c3)Oc3cc2cc(c3O[C@@H]2O[C@H](CO)[C@@H](O)[C@H](O)[C@H]2O[C@H]2C[C@](C)(NCc3ccc(Oc4ccc(OC)cc4)cc3)[C@H](O)[C@H](C)O2)Oc2ccc(cc2Cl)[C@H]1O
